Laboratory results taken from patent US9867794B2, “Regulation of osteopontin” (Pathologica LLC, priority 2007, dated 2018).
Where “and” joins values, the source holds several entries; their conditions need not be identical. Equal values may be shown once.

How the values were obtained:
ADA = test: Microarray analysis of mononuclear cells, ADA; format: cell-based, human; conditions: for ADA signal +, Average: 10 μM MGBG
Method: (§1) Blood samples were obtained from HIV infected patients (N=9) with positive viral load and reduced CD4 counts, and non-HIV infected, healthy controls (N=6). Blood was collected into heparin anticoagulant tubes and mononuclear cells were isolated by Percoll gradient centrifugation. The cells from each sample were split into 2: one-half receives MGBG at concentration of 10 μM and the other half received no treatment. All samples were then cultured overnight in RPMI media with 10% fetal bovine serum at 37° C. under non-adherent conditions. The next day cells were collected by centrifugation, washed one time with PBS, and lysed by resuspension in TRIZOL, and total RNA was prepared according to manufacturer's instructions (Invitrogen, Carlsbad, Calif.). […] The RNA was then amplified for microarray analysis using a 2 cycle amplification protocol according to the manufacturer's instructions (Affymetrix, Santa Clara, Calif.). The amplified RNAs were then hybridized to Human Genome U133 plus 2.0 microarrays (Affymetrix) and expression data was obtained using an Affymetrix scanner and GCOS protocols. Microarray data was analyzed with GeneSpring Microarray Suite. Results were normalized using a set of 100 probe sets determined by the manufacturer to have relatively invariant expression across most cell types.

IL24 = test: Microarray analysis of mononuclear cells, IL24; format: cell-based, human; conditions: for IL24 signal +, Average: 10 μM MGBG
Method: as §1

SPP1 = test: Quantitative RT-PCR, unsorted mononuclear cells, SPP1; format: cell-based, human
Method: (§2) To evaluate the effect of MGBG on gene expression, blood samples were obtained from patients (N=18, 10 HIV-infected and 8 Healthy Controls). Mononuclear cells were isolated via Percoll gradient centrifugation. The cells were split into two tubes, one treated with 10 μM of MGBG and the other non-treated. The cells were then cultured overnight in RPMI media plus 10% fetal bovine serum at 37 C under non-adherent conditions, collected, lysed using Trizol solution, and total RNA prepared according to manufacturer's instructions (Invitrogen, Carlsbad, Calif.).
(§3) Approximately 200 ng of total RNA prepared from each sample was converted to cDNA using the First Strand cDNA Synthesis Kit for RT-PCR [AMV] kit (Roche Applied Diagnostics, Indianapolis, Ind.) according to manufacturer's instructions. Around 5 ng of cDNA sample was then used for PCR performed on a LightCycler (Roche Applied Diagnostics, Indianapolis, Ind.) using the LightCycler FastStart DNA Master SYBR Green I kit. PCR conditions are as follows: 1 cycle of denaturation at 95° C. for 10 minutes, followed by 45 cycles of 95° C. for 10 seconds, 68° C. for 10 seconds, and 72° C. for 16 seconds.
(§4) The sequences of gene-specific primers evaluated are listed below. All samples were also amplified with the human β-actin LightCycler-Primer set (Roche Diagnostics).

NBS1 = test: Quantitative RT-PCR, unsorted mononuclear cells, NBS1; format: cell-based, human
Method: as §2, §3, §4

FCGR1a = test: Quantitative RT-PCR, unsorted mononuclear cells, FCGR1A; format: cell-based, human
Method: as §2, §3, §4

SIVmac251 = test: SIV-infected, CD8-depleted rhesus macaques treated with MGBG: disease; format: in vivo
Method: These monkeys were then treated with MGBG as described.

[1] = average of control samples (C6-, M6-177)
[2] = 10 μM, individual donor samples
[3] = presence of 10 μM MGBG overnight, individual donor samples
[4] = 10 μM MGBG, all unsorted samples
[5] = 10 μM MGBG overnight, individual samples

CC(/C=N/NC(=N)N)=N\NC(=N)N [MGBG, 1,1′ [methylethanediylidene]dinitrilodiguanidine]
ADA signal +, Average (ADA; average of HIV samples): 4029 | ADA signal +, Average (ADA; [1]): 5520 | ADA fold change, MGBG/ON ratio (up-regulation) (ADA; [2]): 3.2 fold (2×) and 2.9 fold and 5.6 fold and 3.6 fold (2×) and 3.7 fold and 4.2 fold and 51.2 fold and 14.6 fold and 5.9 fold and 2.0 fold and 18.3 fold and 2.3 fold and 22.3 fold | ADA regulation by MGBG (ADA; all samples tested): consistently up-regulated | ADA signal + (ADA; [3]): 769 and 6724 and 6874 and 1964 and 7488 and 5384 and 2900 and 5895 and 5781 and 6428 and 6731 and 1845 and 4290 and 832 and 5472 | IL24 signal +, Average (IL24; average of HIV samples): 560 | IL24 signal +, Average (IL24; [1]): 598 | IL24 fold change, MGBG/ON ratio (up-regulation) (IL24; [2]): 5.4 fold and 1.2 fold (2×) and 3.3 fold and 0.3 fold and 0.5 fold and 0.2 fold and 5.5 fold and 2.6 fold and 4.5 fold (2×) and 0.03 fold and 192.1 fold and 0.6 fold and 26.0 fold | IL24 regulation after MGBG exposure (IL24; HIV infected samples but not controls): upregulated | IL24 signal + (IL24; [3]): 111 and 85 and 1940 and 178 and 375 and 578 and 206 and 1549 and 925 and 163 and 166 and 350 and 1364 and 59 and 577 | Fold change SPP1 by QRT-PCR (SPP1; 10 μM MGBG overnight, untreated vs treated, negative = fold reduction, individual samples): −20.11 fold and −83.87 fold and −6.59 fold and −1.30 fold and −8.82 fold and −95.67 fold and −7.89 fold and −1.95 fold and −46.21 fold and −5.90 fold and −2.11 fold and −6.15 fold and −1.28 fold and −467.88 fold and −18.90 fold (2×) and −300.25 fold and −2.14 fold | Fold change SPP1, AVERAGE (SPP1; [4]): −60.9 fold | Fold change SPP1, MAX (SPP1; [4]): −1.3 fold | Fold change SPP1, MIN (SPP1; [4]): −467.9 fold | SPP1 fold changes between the untreated and the treated (SPP1; certain unsorted samples): up to 300 fold | SPP1 % >2 fold Changed (SPP1; share of samples, 10 μM MGBG): 83% | Fold change NBS1 by QRT-PCR (NBS1; [5]): 1.68 fold and 1.25 fold and 1.35 fold and −1.56 fold and 2.07 fold and 3.51 fold (2×) and −1.09 fold and 1.04 fold and 4.08 fold and 2.31 fold and 1.14 fold and 1.27 fold and −4.35 fold and −8.51 fold and −2.51 fold and −1.89 fold and 3.63 fold | NBS1 AVERAGE (NBS1; 10 μM MGBG, all samples): 1.65 fold | NBS1 MAX (NBS1; 10 μM MGBG, all samples): 4.08 fold | NBS1 MIN (NBS1; 10 μM MGBG, all samples): −8.51 fold | Fold change FCGR1A by QRT-PCR (FCGR1a; [5]): −1.61 fold and −1.84 fold and −1.01 fold and −1.72 fold and −3.73 fold and 1.72 fold and 5.94 fold and 2.39 fold and −1.97 fold and 19.03 fold and 1.16 fold and −0.41 fold and −0.43 fold and −10.78 fold and −17.15 fold and −2.22 fold and −3.86 fold and 1.05 fold | FCGR1A AVERAGE (FCGR1a; 10 μM MGBG, all samples): 2.25 fold | FCGR1A MAX (FCGR1a; 10 μM MGBG, all samples): 19.03 fold | FCGR1A MIN (FCGR1a; 10 μM MGBG, all samples): −17.15 fold | SIV-associated macrophages in the frontal cortex (SIVmac251; 4 doses of MGBG, compared to non-treated): absence of SIV-associated macrophages | macrophage infiltration in brains (SIVmac251; FIG. 9, treated infected macaques): no pathology was observed | illness (AIDS and dementia) (SIVmac251; both trials, treated animals): none of the treated animals became ill | SIVE or DRG infiltration (SIVmac251; first trial, 200, 300, 400 mg/m^2 weekly, 2 treated animals): no indications of SIVE or DRG infiltration | SIV disease (SIVmac251; second trial, bi-weekly 250 mg/m^2, 2 treated animals): no evidence for SIV disease
